# Reference: PMC7181827, “A Highly Glucose Tolerant ß-Glucosidase from Malbranchea pulchella (MpBg3) Enables Cellulose Saccharification” (Scientific Reports, 2020)
# System: T1, MpBgl3
# T1 construct: native secreted enzyme purified from culture filtrate (cellobiose-grown), N-glycosylated
# Assay: p-nitrophenol release, absorbance at […] nm; SigrafW fit
# Format: biochemical, Malbranchea pulchella
# Settings: McIlvaine buffer pH 6.0, 50 °C
structure (smiles),measurement,value
O=[N+]([O-])c1ccc(O[C@@H]2O[C@H](CO)[C@@H](O)[C@H](O)[C@H]2O)cc1 [pNPG],Km,330 µM
